# Source: ChEMBL document CHEMBL4219057, “Recent Advances of Colony-Stimulating Factor-1 Receptor (CSF-1R) Kinase and Its Inhibitors” (J Med Chem, 2018)
# pEC50, pIC50: −log10 of the molar value.
# Key:
# Mus musculus [1] = test: Inhibition of LPS-induced IL-6 level in serum of Swiss Webster mouse at 40 mg/kg, po via gavage pretreated for 4.15 hrs followed by LPS stimulation measured after 1.5 hrs by ELISA relative to control; format: functional
# [2] = target: Mast/stem cell growth factor receptor Kit (Homo sapiens, UniProt P10721); test: Inhibition of KIT (unknown origin) using biotinylated peptide substrate
# Chain of Mast/stem cell growth factor receptor Kit (P10721 whole entry): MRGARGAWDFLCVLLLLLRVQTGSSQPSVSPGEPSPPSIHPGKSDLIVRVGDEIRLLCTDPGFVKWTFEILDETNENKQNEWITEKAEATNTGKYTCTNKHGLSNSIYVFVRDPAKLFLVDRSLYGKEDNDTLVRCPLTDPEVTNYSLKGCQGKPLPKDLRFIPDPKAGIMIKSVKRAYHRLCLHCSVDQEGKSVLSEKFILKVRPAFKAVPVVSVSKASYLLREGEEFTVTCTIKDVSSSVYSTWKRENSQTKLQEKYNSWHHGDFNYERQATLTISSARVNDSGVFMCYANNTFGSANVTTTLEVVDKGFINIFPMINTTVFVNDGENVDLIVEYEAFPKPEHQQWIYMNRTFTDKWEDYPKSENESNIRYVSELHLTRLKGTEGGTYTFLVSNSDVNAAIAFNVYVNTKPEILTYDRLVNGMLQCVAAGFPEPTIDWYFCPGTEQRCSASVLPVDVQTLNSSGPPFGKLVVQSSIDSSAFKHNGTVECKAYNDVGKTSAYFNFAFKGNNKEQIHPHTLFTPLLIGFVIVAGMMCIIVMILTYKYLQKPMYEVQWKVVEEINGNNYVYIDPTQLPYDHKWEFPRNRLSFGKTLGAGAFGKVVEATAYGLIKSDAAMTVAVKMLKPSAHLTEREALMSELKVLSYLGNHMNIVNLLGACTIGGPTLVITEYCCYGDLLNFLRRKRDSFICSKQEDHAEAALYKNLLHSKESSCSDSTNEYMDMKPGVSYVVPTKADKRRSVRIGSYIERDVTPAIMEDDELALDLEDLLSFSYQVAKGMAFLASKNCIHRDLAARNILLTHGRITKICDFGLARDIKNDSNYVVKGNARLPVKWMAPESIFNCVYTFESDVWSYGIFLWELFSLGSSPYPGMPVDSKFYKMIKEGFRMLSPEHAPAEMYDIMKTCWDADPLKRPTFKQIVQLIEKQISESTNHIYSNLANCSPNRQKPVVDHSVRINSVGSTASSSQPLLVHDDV
# [3] = target: Macrophage colony-stimulating factor 1 receptor (Homo sapiens, UniProt P07333); test: Inhibition of CSF1R (unknown origin) using biotinylated peptide substrate
# Chain of Macrophage colony-stimulating factor 1 receptor (P07333 whole entry): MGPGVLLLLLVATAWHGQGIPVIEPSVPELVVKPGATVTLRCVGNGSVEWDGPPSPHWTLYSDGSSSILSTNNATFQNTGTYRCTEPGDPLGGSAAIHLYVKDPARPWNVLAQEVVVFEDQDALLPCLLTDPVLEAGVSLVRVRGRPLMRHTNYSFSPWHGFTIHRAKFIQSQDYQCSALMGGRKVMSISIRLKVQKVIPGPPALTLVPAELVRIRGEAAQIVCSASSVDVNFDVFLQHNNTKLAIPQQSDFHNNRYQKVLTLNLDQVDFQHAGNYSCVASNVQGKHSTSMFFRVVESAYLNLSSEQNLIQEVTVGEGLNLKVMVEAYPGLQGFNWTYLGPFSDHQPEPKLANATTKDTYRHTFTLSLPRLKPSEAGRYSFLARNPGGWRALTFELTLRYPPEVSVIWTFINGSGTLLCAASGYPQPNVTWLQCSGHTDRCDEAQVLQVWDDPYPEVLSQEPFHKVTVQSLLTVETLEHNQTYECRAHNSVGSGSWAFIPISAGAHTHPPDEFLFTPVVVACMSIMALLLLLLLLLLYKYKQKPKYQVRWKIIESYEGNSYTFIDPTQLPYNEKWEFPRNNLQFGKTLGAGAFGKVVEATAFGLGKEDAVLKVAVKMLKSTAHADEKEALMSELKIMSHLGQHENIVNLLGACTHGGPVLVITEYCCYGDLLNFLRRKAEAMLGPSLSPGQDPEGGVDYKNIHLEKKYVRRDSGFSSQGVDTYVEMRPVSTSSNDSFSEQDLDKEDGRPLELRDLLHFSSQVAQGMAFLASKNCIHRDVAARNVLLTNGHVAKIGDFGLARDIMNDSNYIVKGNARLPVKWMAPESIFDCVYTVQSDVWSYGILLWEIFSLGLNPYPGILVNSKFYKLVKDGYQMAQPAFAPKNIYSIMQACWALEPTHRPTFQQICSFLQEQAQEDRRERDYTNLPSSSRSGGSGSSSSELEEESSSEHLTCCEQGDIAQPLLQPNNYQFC
# Mus musculus [4] = test: Anti-inflammatory activity in unilateral ureter obstruction-induced C57BL/6 mouse renal inflammation model assessed as reduction in F4/80+ macrophage accumulation in kidney at 40 mg/kg, po via gavage administered at 12 hrs time interval for 7 days starting from end of UUO surgery by […] staining based immunohistochemical analysis relative to control; format: functional; conditions: C57BL/6, po
# Mus musculus [5] = test: Inhibition of LPS-induced TNFalpha level in serum of Swiss Webster mouse at 40 mg/kg, po via gavage pretreated for 4.15 hrs followed by LPS stimulation measured after 1.5 hrs by ELISA relative to control; format: functional
# [6] = Aqueous solubility of the compound by turbidity-based assay; format: physicochemical; conditions: buffer
# NFS-60 = test: Antiproliferative activity against mouse M-NFS-60 cells harboring CSF1; format: functional, cell-based
# [7] = Protein binding in human plasma at 10 uM after 4 hrs by equilibrium dialysis method; format: ADME, cell-free; conditions: read-out: PPB (converted)
# [8] = Tmax in cHL patient at 10 mg administered as single dose; format: ADME, organism-based; conditions: human, in vivo
# [9] = Drug uptake in tumor of recurrent GB patient at 1000 mg, po daily after 7 days; format: ADME, organism-based, Neoplasm; conditions: human, read-out: Drug uptake
Structure (SMILES),pIC50 [3],solubility kinetic [6],pEC50 (NFS-60),"fraction unbound at 4 h, 10 µM [7]",further results
FC(F)(F)c1ccc(CNc2ccc(Cc3c[nH]c4ncccc34)cn2)cc1,7.55,14 µM,,,inhibition in vivo at 40 mg/kg (Mus musculus [1]): 75%; pIC50 [2]: 7.80; inhibition in vivo at 40 mg/kg (Mus musculus [4]): 77%; inhibition in vivo at 40 mg/kg (Mus musculus [5]): 85%
CNC(=O)c1cc(Oc2ccc3nc(N[C@@H]4CCCC[C@@H]4O)sc3c2)ccn1,,,6.85,0.031,
COc1cnc2[nH]cc(Cc3ccc(NCc4ccc(C(F)(F)F)cc4)nc3)c2c1,7.21,77 µM,,,
CC1(C)CC=C(c2nc(C3CC(C)(C)OC(C)(C)C3)ccc2NC(=O)c2nc(C#N)c[nH]2)CC1 [EDICOTINIB],,,,,Tmax [8]: 1 to 3.5 h
FC(F)(F)c1ccc(CNc2ccc(Cc3c[nH]c4ncc(Cl)cc34)cn2)cn1 [PEXIDARTINIB],,,,,concentration at 168 h [9]: 5500 ng/g
CNC(=O)c1cc(Oc2ccc3nc(N[C@@H]4CCCC[C@H]4O)sc3c2)ccn1 [SOTULETINIB],,,7.15,0.037,
